Patent publication US10526418B2, “Modulators of ACYL-COA lysocardiolipin acyltransferase 1 (ALCAT1) and uses thereof” (priority 2012, dated 2020)

How the values were obtained:
[1] = test system: MFN1 and MFN2 expression in C2C12 cells; experiment: Western blot analysis of MFN1 and MFN2 expression in C2C12 cells stably expressing ALCAT1 or vector control, treated with H2O2; format: cell-based
Experimental: FIG. 7G: Western blot analysis of MFN1 and MFN2 expression in C2C12 cells stably expressing vector, ALCAT1, or ALCAT1 but were pretreated various doses (0, 1M, and 5M) of diphenyliodonium (DPI), an NADPH oxidase inhibitor, prior to treatment with 1.5 mM of H2O2.
The C2C12-A1 cells and vector control were treated with increasing doses of H2O2 as used in FIG. 7E, followed by analysis of MFN2 expression by western blot analysis.

[2] = test system: phosphorylation of Akt and Erk in H9c2 cells; experiment: Western blot analysis of phosphorylation of Akt and Erk in H9c2 cardiac cells stimulated with insulin; format: cell-based; conditions: vector control H9c2 cells, indicated doses of insulin, FIG. 17A
Experimental: FIGS. 17A-17B: H9c2 cardiac cells stably expressing ALCAT1 or vector control were stimulated with indicated doses of insulin (FIG. 17A) or with 100 nM of T3 for the indicated time (FIG. 17B), followed by analysis of phosphorylation of Akt, Erk, S6K1, and 4E-BP by western blot analysis using β-actin as an internal control. FIG. 17C: WT and KO mice were treated with vehicle or T4 for 28 days, followed by Western blot analysis of phosphorylation of Akt, GSK3α/β, and 4E-BP in cardiomyocytes by Western blot analysis using GAPDH as an internal control.
Oxidative Stress by ALCAT1 Regulates Akt-mTOR Signal Transduction Pathways in Cardiomyopathy: Hyperthyroidism leads to cardiomyopathy by stimulating protein synthesis in the cardiomyocytes. To identify molecular mechanisms underlying a role of ALCAT1 in hypertrophic growth, the effects of ALCAT1 overexpression and deficiency were analyzed on signal transduction pathways involved in cellular growth and proliferation, including phosphorylation of Akt, Erk, S6K, and 4E-BP1, in H9c2 cells and in mice with hyperthyroidism. Increased ROS levels lead to insulin resistance which plays a causative role in cardiac dysfunction. […] In support of the findings in H9c2 cells, short term treatment of mice with thyroid hormone stimulated cardiac Akt-mTOR phosphorylation in both ALCAT1 knockout mice and the WT mice (FIG. 20).

## OO [H2O2, Hydrogen Peroxide]
[1]; vector control C2C12 cells, increasing doses of H2O2, FIG. 7F
  MFN1 and MFN2 expression: dose-dependently depleted MFN1 and MFN2 expression

## c1ccc2c(c1)[I+]c1ccccc1-2 [DPI, diphenyleneiodonium]
[1]; C2C12-A1 cells (stably expressing ALCAT1) pre-incubated with DPI (0, 1M, and 5M) prior to 1.5 mM H2O2, FIG. 7G
  loss of MFN expression in response to H2O2: dose-dependently prevented the loss of MFN expression

## insulin: hormone used to stimulate Akt and Erk phosphorylation in H9c2 cells
[2]
  phosphorylation of Akt and Erk: dose-dependently stimulated phosphorylation of Akt and Erk
